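The compound was tested at five concentrations on cells cultured in 96-well plates, with a 48-hour exposure period. GI50: concentration for 50% inhibition of growth. At the TGI there is no net growth.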
Key:
Assay in all cases: NCI tumour cell line growth inhibition, 48 h
786-0 renal = system: 786-0 renal
A498 renal = system: A498 renal
A549 NSCLC = system: A549 NSCLC
ACHN renal = system: ACHN renal
BT-549 breast = system: BT-549 breast
CAKI-1 renal = system: CAKI-1 renal
CCRF-CEM leukemia = system: CCRF-CEM leukemia
COLO 205 colon = system: COLO 205 colon
DU-145 prostate = system: DU-145 prostate
EKVX NSCLC = system: EKVX NSCLC
HCC-2998 colon = system: HCC-2998 colon
HCT-116 colon = system: HCT-116 colon
HCT-15 colon = system: HCT-15 colon
HL-60(TB) leukemia = system: HL-60(TB) leukemia
HOP-62 NSCLC = system: HOP-62 NSCLC
HOP-92 NSCLC = system: HOP-92 NSCLC
HS 578T breast = system: HS 578T breast
HT29 colon = system: HT29 colon
IGROV1 ovarian = system: IGROV1 ovarian
K-562 leukemia = system: K-562 leukemia
KM12 colon = system: KM12 colon
LOX IMVI melanoma = system: LOX IMVI melanoma
M14 melanoma = system: M14 melanoma
MALME-3M melanoma = system: MALME-3M melanoma
MCF7 breast = system: MCF7 breast
MDA-MB-231 breast = system: MDA-MB-231 breast
MDA-MB-435 = system: MDA-MB-435
MOLT-4 leukemia = system: MOLT-4 leukemia
NCI-H226 lung = system: NCI-H226 lung
NCI-H23 lung = system: NCI-H23 lung
NCI-H460 lung = system: NCI-H460 lung
NCI-H522 lung = system: NCI-H522 lung
NCI/ADR-RES ovarian = system: NCI/ADR-RES ovarian
OVCAR-3 ovarian = system: OVCAR-3 ovarian
OVCAR-4 ovarian = system: OVCAR-4 ovarian
OVCAR-5 ovarian = system: OVCAR-5 ovarian
OVCAR-8 ovarian = system: OVCAR-8 ovarian
PC-3 prostate = system: PC-3 prostate
RPMI-8226 leukemia = system: RPMI-8226 leukemia
RXF 393 renal = system: RXF 393 renal
SF-268 CNS = system: SF-268 CNS
SF-295 CNS = system: SF-295 CNS
SF-539 CNS = system: SF-539 CNS
SK-MEL-2 melanoma = system: SK-MEL-2 melanoma
SK-MEL-28 melanoma = system: SK-MEL-28 melanoma
SK-MEL-5 melanoma = system: SK-MEL-5 melanoma
SK-OV-3 ovarian = system: SK-OV-3 ovarian
SN12C renal = system: SN12C renal
SNB-19 CNS = system: SNB-19 CNS
SNB-75 CNS = system: SNB-75 CNS
SR leukemia = system: SR leukemia
SW-620 colon = system: SW-620 colon
T-47D breast = system: T-47D breast
TK-10 renal = system: TK-10 renal
U251 CNS = system: U251 CNS
UACC-257 melanoma = system: UACC-257 melanoma
UACC-62 melanoma = system: UACC-62 melanoma
UO-31 renal = system: UO-31 renal

Cc1cc(CC(C)CC(C)(C)C)n(O)c(=O)c1 (stereo unspecified) (tested in a mixture with another compound)
GI50 (786-0 renal): 1800 nM
TGI (786-0 renal): 5700 nM
GI50 (A498 renal): 944 nM
TGI (A498 renal): 10300 nM
GI50 (A549 NSCLC): 500 nM
TGI (A549 NSCLC): > 49700 nM
GI50 (ACHN renal): 385 nM
TGI (ACHN renal): > 37600 nM
GI50 (BT-549 breast): 351 nM
TGI (BT-549 breast): 3250 nM
GI50 (CAKI-1 renal): 1760 nM
TGI (CAKI-1 renal): 9820 nM
GI50 (CCRF-CEM leukemia): 261 nM
TGI (CCRF-CEM leukemia): 1300 nM
GI50 (COLO 205 colon): 13400 nM
TGI (COLO 205 colon): 59600 nM
GI50 (DU-145 prostate): 505 nM
TGI (DU-145 prostate): > 41300 nM
GI50 (EKVX NSCLC): 889 nM
TGI (EKVX NSCLC): 25400 nM
GI50 (HCC-2998 colon): 2600 nM
TGI (HCC-2998 colon): 17700 nM
GI50 (HCT-116 colon): 406 nM
TGI (HCT-116 colon): 13200 nM
GI50 (HCT-15 colon): 459 nM
TGI (HCT-15 colon): > 100000 nM
GI50 (HL-60(TB) leukemia): 189 nM
TGI (HL-60(TB) leukemia): 525 nM
GI50 (HOP-62 NSCLC): 677 nM
TGI (HOP-62 NSCLC): 16100 nM
GI50 (HOP-92 NSCLC): 174 nM
TGI (HOP-92 NSCLC): 1880 nM
GI50 (HS 578T breast): 8070 nM
TGI (HS 578T breast): > 62100 nM
GI50 (HT29 colon): 3910 nM
TGI (HT29 colon): 17500 nM
GI50 (IGROV1 ovarian): 464 nM
TGI (IGROV1 ovarian): 16700 nM
GI50 (K-562 leukemia): 258 nM
TGI (K-562 leukemia): 15200 nM
GI50 (KM12 colon): 602 nM
TGI (KM12 colon): 21300 nM
GI50 (LOX IMVI melanoma): 312 nM
TGI (LOX IMVI melanoma): 10900 nM
GI50 (M14 melanoma): 285 nM
TGI (M14 melanoma): 1160 nM
GI50 (MALME-3M melanoma): 482 nM
TGI (MALME-3M melanoma): 13000 nM
GI50 (MCF7 breast): 401 nM
TGI (MCF7 breast): > 43000 nM
GI50 (MDA-MB-231 breast): 450 nM
TGI (MDA-MB-231 breast): > 48500 nM
GI50 (MDA-MB-435): 559 nM
TGI (MDA-MB-435): 24900 nM
GI50 (MOLT-4 leukemia): 246 nM
TGI (MOLT-4 leukemia): 714 nM
GI50 (NCI-H226 lung): 435 nM
TGI (NCI-H226 lung): 10400 nM
GI50 (NCI-H23 lung): 559 nM
TGI (NCI-H23 lung): 22000 nM
GI50 (NCI-H460 lung): 331 nM
TGI (NCI-H460 lung): 10900 nM
GI50 (NCI-H522 lung): 475 nM
TGI (NCI-H522 lung): 4230 nM
GI50 (NCI/ADR-RES ovarian): 373 nM
TGI (NCI/ADR-RES ovarian): 4020 nM
GI50 (OVCAR-3 ovarian): 745 nM
TGI (OVCAR-3 ovarian): 18600 nM
GI50 (OVCAR-4 ovarian): 358 nM
TGI (OVCAR-4 ovarian): > 84400 nM
GI50 (OVCAR-5 ovarian): 689 nM
TGI (OVCAR-5 ovarian): > 58000 nM
GI50 (OVCAR-8 ovarian): 410 nM
TGI (OVCAR-8 ovarian): > 100000 nM
GI50 (PC-3 prostate): 601 nM
TGI (PC-3 prostate): 40000 nM
GI50 (RPMI-8226 leukemia): 365 nM
TGI (RPMI-8226 leukemia): 8060 nM
GI50 (RXF 393 renal): 372 nM
TGI (RXF 393 renal): 6530 nM
GI50 (SF-268 CNS): 409 nM
TGI (SF-268 CNS): 16100 nM
GI50 (SF-295 CNS): 447 nM
TGI (SF-295 CNS): 18500 nM
GI50 (SF-539 CNS): 390 nM
TGI (SF-539 CNS): 13200 nM
GI50 (SK-MEL-2 melanoma): 766 nM
TGI (SK-MEL-2 melanoma): > 100000 nM
GI50 (SK-MEL-28 melanoma): 548 nM
TGI (SK-MEL-28 melanoma): > 63200 nM
GI50 (SK-MEL-5 melanoma): 292 nM
TGI (SK-MEL-5 melanoma): 1010 nM
GI50 (SK-OV-3 ovarian): 1750 nM
TGI (SK-OV-3 ovarian): > 55300 nM
GI50 (SN12C renal): 468 nM
TGI (SN12C renal): 32700 nM
GI50 (SNB-19 CNS): 519 nM
TGI (SNB-19 CNS): > 100000 nM
GI50 (SNB-75 CNS): 1610 nM
TGI (SNB-75 CNS): 61200 nM
GI50 (SR leukemia): 286 nM
TGI (SR leukemia): 2970 nM
GI50 (SW-620 colon): 478 nM
TGI (SW-620 colon): > 81100 nM
GI50 (T-47D breast): 725 nM
TGI (T-47D breast): > 43600 nM
GI50 (TK-10 renal): 5090 nM
TGI (TK-10 renal): > 74700 nM
GI50 (U251 CNS): 400 nM
TGI (U251 CNS): 13900 nM
GI50 (UACC-257 melanoma): 507 nM
TGI (UACC-257 melanoma): > 100000 nM
GI50 (UACC-62 melanoma): 305 nM
TGI (UACC-62 melanoma): 1080 nM
GI50 (UO-31 renal): 379 nM
TGI (UO-31 renal): 7010 nM
